Source: ChEMBL document CHEMBL1201861, “Genomics of Drug Sensitity in Cancer screening data, Wellcome Trust Sanger Institute”

Assays:
HT55 = test: cells; format: functional, cell-based, Homo sapiens; conditions: Homo sapiens, HT55;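 also: cell viability readout measuring growth inhibition of human HT55 cells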
Description: SANGER: Inhibition of human HT55 cell growth in a cell viability assay.

TE-441-T = test: cells; format: functional, cell-based; conditions: Homo sapiens
Description: SANGER: Inhibition of human TE-441-T cell growth in a cell viability assay.

MHH-CALL-2 = test: cells; format: functional, cell-based; conditions: Homo sapiens;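 also: growth inhibition of the cell line, read out in a cell viability assay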
Description: SANGER: Inhibition of human MHH-CALL-2 cell growth in a cell viability assay.

IST-SL2 = test: cells; format: functional, cell-based; conditions: Homo sapiens;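 also: growth inhibition of human IST-SL2 cells, read out by a cell viability assay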
Description: SANGER: Inhibition of human IST-SL2 cell growth in a cell viability assay.

NALM-6 = test: cells; format: functional, cell-based; conditions: Homo sapiens;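 also: growth inhibition of NALM-6 cells, read out with a cell viability assay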
Description: SANGER: Inhibition of human NALM-6 cell growth in a cell viability assay.

LC-1F = test: cells; format: functional, cell-based; conditions: Homo sapiens;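 also: growth inhibition of human LC-1F cells, read out with a cell viability assay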
Description: SANGER: Inhibition of human LC-1F cell growth in a cell viability assay.

TALL-1 = test: cells; format: functional, cell-based; conditions: Homo sapiens;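 also: growth inhibition of cultured human TALL-1 cells, read out by a cell viability assay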
Description: SANGER: Inhibition of human TALL-1 cell growth in a cell viability assay.

SJRH30 = test: cells; format: functional, cell-based; conditions: Homo sapiens;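 also: growth inhibition of human SJRH30 cells, read out with a cell viability assay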
Description: SANGER: Inhibition of human SJRH30 cell growth in a cell viability assay.

CHP-126 = test: cells; format: functional, cell-based; conditions: Homo sapiens
Description: SANGER: Inhibition of human CHP-126 cell growth in a cell viability assay.

DMS-153 = test: cells; format: functional, cell-based; conditions: Homo sapiens
Description: SANGER: Inhibition of human DMS-153 cell growth in a cell viability assay.

EB2 = test: cells; format: functional, cell-based; conditions: Homo sapiens;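 also: growth inhibition of EB2 cells, read out with a cell viability assay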
Description: SANGER: Inhibition of human EB2 cell growth in a cell viability assay.

SIMA = test: cells; format: functional, cell-based, Homo sapiens; conditions: Homo sapiens, SIMA;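 also: growth inhibition of SIMA cells, measured with a cell viability readout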
Description: SANGER: Inhibition of human SIMA cell growth in a cell viability assay.

SNU-423 = test: cells; format: functional, cell-based, Homo sapiens; conditions: Homo sapiens, SNU-423
Description: SANGER: Inhibition of human SNU-423 cell growth in a cell viability assay.

LC4-1 = test: cells; format: functional, cell-based; conditions: Homo sapiens;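 also: growth inhibition of LC4-1 cells, read out with a cell viability assay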
Description: SANGER: Inhibition of human LC4-1 cell growth in a cell viability assay.

SNU-16 = test: cells; format: functional, cell-based; conditions: Homo sapiens;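 also: growth inhibition of human SNU-16 cells, determined with a cell viability readout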
Description: SANGER: Inhibition of human NCI-SNU-16 cell growth in a cell viability assay.

NCI-H2196 = test: cells; format: functional, cell-based; conditions: Homo sapiens;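 also: cell viability assay used as the readout of growth inhibition in NCI-H2196 cells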
Description: SANGER: Inhibition of human NCI-H2196 cell growth in a cell viability assay.

NCI-H1882 = test: cells; format: functional, cell-based; conditions: Homo sapiens;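 also: growth inhibition of the cell line, determined with a viability assay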
Description: SANGER: Inhibition of human NCI-H1882 cell growth in a cell viability assay.

NCCIT = test: SANGER: Inhibition of human NCCIT cell growth in a cell viability assay.; format: functional, cell-based
SK-MM-2 = test: cells; format: functional, cell-based; conditions: Homo sapiens;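 also: growth inhibition of human SK-MM-2 cells, read out with a cell viability assay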
Description: SANGER: Inhibition of human SK-MM-2 cell growth in a cell viability assay.

NB1 = test: cells; format: functional, cell-based; conditions: Homo sapiens;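 also: reduction of NB1 cell proliferation, read out with a viability assay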
Description: SANGER: Inhibition of human NB1 cell growth in a cell viability assay.

MC-CAR = test: cells; format: functional, cell-based; conditions: Homo sapiens;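 also: growth inhibition of the human MC-CAR cell line, read out by a cell viability assay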
Description: SANGER: Inhibition of human MC-CAR cell growth in a cell viability assay.

HSC-4 = test: cells; format: functional, cell-based, Homo sapiens; conditions: Homo sapiens, HSC-4;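 also: growth inhibition of human HSC-4 cells, read out with a cell viability assay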
Description: SANGER: Inhibition of human HSC-4 cell growth in a cell viability assay.

LP-1 = test: cells; format: functional, cell-based; conditions: Homo sapiens;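 also: growth inhibition of human LP-1 cells, with the read-out taken from a cell viability assay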
Description: SANGER: Inhibition of human LP-1 cell growth in a cell viability assay.

NCI-H1417 = test: cells; format: functional, cell-based; conditions: Homo sapiens;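 also: human NCI-H1417 cells, growth inhibition determined with a cell viability readout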
Description: SANGER: Inhibition of human NCI-H1417 cell growth in a cell viability assay.

SCLC-21H = test: cells; format: functional, cell-based; conditions: Homo sapiens;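 also: growth inhibition of cultured human SCLC-21H cells, read out with a cell viability assay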
Description: SANGER: Inhibition of human SCLC-21H cell growth in a cell viability assay.

RL = test: cells; format: functional, cell-based; conditions: Homo sapiens
Description: SANGER: Inhibition of human RL cell growth in a cell viability assay.

NCI-H748 = test: cells; format: functional, cell-based; conditions: Homo sapiens;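 also: growth inhibition of NCI-H748 cells, measured by a cell viability assay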
Description: SANGER: Inhibition of human NCI-H748 cell growth in a cell viability assay.

CAL-148 = test: cells; format: functional, cell-based; conditions: Homo sapiens
Description: SANGER: Inhibition of human CAL-148 cell growth in a cell viability assay.

P31-FUJ = test: cells; format: functional, cell-based; conditions: Homo sapiens;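 also: growth inhibition of P31-FUJ cells, read out with a viability assay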
Description: SANGER: Inhibition of human P31-FUJ cell growth in a cell viability assay.

BL-41 = test: cells; format: functional, cell-based; conditions: Homo sapiens;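 also: growth inhibition of human BL-41 cells, read out with a cell viability assay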
Description: SANGER: Inhibition of human BL-41 cell growth in a cell viability assay.

BL-70 = test: SANGER: Inhibition of human BL-70 cell growth in a cell viability assay.; format: functional, cell-based
NCI-H460 = test: cells; format: functional, cell-based, Homo sapiens; conditions: Homo sapiens, NCI-H460;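 also: cell viability assay scoring growth inhibition of human NCI-H460 cells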
Description: SANGER: Inhibition of human NCI-H460 cell growth in a cell viability assay.

WSU-NHL = test: cells; format: functional, cell-based; conditions: Homo sapiens;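 also: growth inhibition of human WSU-NHL cells, read out with a cell viability assay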
Description: SANGER: Inhibition of human WSU-NHL cell growth in a cell viability assay.

PF-382 = test: cells; format: functional, cell-based; conditions: Homo sapiens
Description: SANGER: Inhibition of human PF-382 cell growth in a cell viability assay.

RPMI-6666 = test: cells; format: functional, cell-based; conditions: Homo sapiens
Description: SANGER: Inhibition of human RPMI-6666 cell growth in a cell viability assay.

EVSA-T = test: cells; format: functional, cell-based, Homo sapiens; conditions: Homo sapiens, EVSA-T;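 also: growth inhibition of EVSA-T cells, read out with a cell viability assay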
Description: SANGER: Inhibition of human EVSA-T cell growth in a cell viability assay.

NCI-H719 = test: cells; format: functional, cell-based; conditions: Homo sapiens;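 also: growth inhibition of the cultured cell line, read out with a viability assay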
Description: SANGER: Inhibition of human NCI-H719 cell growth in a cell viability assay.

UACC-812 = test: cells; format: functional, cell-based; conditions: Homo sapiens
Description: SANGER: Inhibition of human UACC-812 cell growth in a cell viability assay.

NCI-H2171 = test: cells; format: functional, cell-based; conditions: Homo sapiens;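 also: growth inhibition of human NCI-H2171 cells, read out by a cell viability assay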
Description: SANGER: Inhibition of human NCI-H2171 cell growth in a cell viability assay.

U-698-M = test: cells; format: functional, cell-based; conditions: Homo sapiens
Description: SANGER: Inhibition of human U-698-M cell growth in a cell viability assay.

CMK = test: cells; format: functional, cell-based; conditions: Homo sapiens;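 also: growth inhibition of CMK cells, read out as cell viability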
Description: SANGER: Inhibition of human CMK cell growth in a cell viability assay.

CESS = test: SANGER: Inhibition of human CESS cell growth in a cell viability assay.; format: functional, cell-based
SIG-M5 = test: cells; format: functional, cell-based; conditions: Homo sapiens;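 also: cell viability assay read-out, measuring how strongly growth of cultured human SIG-M5 cells is inhibited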
Description: SANGER: Inhibition of human SIG-M5 cell growth in a cell viability assay.

RPMI 8402 = test: SANGER: Inhibition of human RPMI-8402 cell growth in a cell viability assay.; format: functional, cell-based
BC-3 = test: cells; format: functional, cell-based; conditions: Homo sapiens;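 also: cell viability assay measuring growth inhibition of human BC-3 cells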
Description: SANGER: Inhibition of human BC-3 cell growth in a cell viability assay.

NCI-H522 = test: cells; format: functional, cell-based, Homo sapiens; conditions: Homo sapiens, NCI-H522;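 also: cell viability assay measuring growth inhibition of human NCI-H522 cells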
Description: SANGER: Inhibition of human NCI-H522 cell growth in a cell viability assay.

MONO-MAC-6 = test: cells; format: functional, cell-based; conditions: Homo sapiens;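 also: cell viability assay measuring growth inhibition of human MONO-MAC-6 cells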
Description: SANGER: Inhibition of human MONO-MAC-6 cell growth in a cell viability assay.

NCI-H1522 = test: cells; format: functional, cell-based; conditions: Homo sapiens;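 also: growth inhibition of NCI-H1522 cells, read out with a cell viability assay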
Description: SANGER: Inhibition of human NCI-H1522 cell growth in a cell viability assay.

NCI-H64 = test: cells; format: functional, cell-based; conditions: Homo sapiens;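 also: growth inhibition of NCI-H64 cells, read out with a cell viability assay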
Description: SANGER: Inhibition of human NCI-H64 cell growth in a cell viability assay.

C[C@]1(O)C[C@@H](c2nc(-c3ccc4ccc(-c5ccccc5)nc4c3)c3c(N)nccn32)C1 [LINSITINIB]
IC50 (HT55): > 2560 nM
IC50 (TE-441-T): > 2560 nM
IC50 (MHH-CALL-2): > 2560 nM
IC50 (IST-SL2): > 2560 nM
IC50 (NALM-6): > 2560 nM
IC50 (LC-1F): > 2560 nM
IC50 (TALL-1): > 2560 nM
IC50 (SJRH30): 508 nM
IC50 (CHP-126): > 2560 nM
IC50 (DMS-153): > 2560 nM
IC50 (EB2): > 2560 nM
IC50 (SIMA): 1070 nM
IC50 (SNU-423): > 2560 nM
IC50 (LC4-1): > 2560 nM
IC50 (SNU-16): > 2560 nM
IC50 (NCI-H2196): > 2560 nM
IC50 (NCI-H1882): > 2560 nM
IC50 (NCCIT): > 2560 nM
IC50 (SK-MM-2): 655 nM
IC50 (NB1): > 2560 nM
IC50 (MC-CAR): > 2560 nM
IC50 (HSC-4): > 2560 nM
IC50 (LP-1): 2260 nM
IC50 (NCI-H1417): > 2560 nM
IC50 (SCLC-21H): > 2560 nM
IC50 (RL): > 2560 nM
IC50 (NCI-H748): > 2560 nM
IC50 (CAL-148): > 2560 nM
IC50 (P31-FUJ): > 2560 nM
IC50 (BL-41): > 2560 nM
IC50 (BL-70): > 2560 nM
IC50 (NCI-H460): > 2560 nM
IC50 (WSU-NHL): > 2560 nM
IC50 (PF-382): > 2560 nM
IC50 (RPMI-6666): > 2560 nM
IC50 (EVSA-T): > 2560 nM
IC50 (NCI-H719): > 2560 nM
IC50 (UACC-812): > 2560 nM
IC50 (NCI-H2171): 1780 nM
IC50 (U-698-M): > 2560 nM
IC50 (CMK): 999 nM
IC50 (CESS): > 2560 nM
IC50 (SIG-M5): 536 nM
IC50 (RPMI 8402): > 2560 nM
IC50 (BC-3): > 2560 nM
IC50 (NCI-H522): > 2560 nM
IC50 (MONO-MAC-6): > 2560 nM
IC50 (NCI-H1522): > 2560 nM
IC50 (NCI-H64): > 2560 nM

C=CCc1cccc(/C=N/NC(=O)CN2CCN(Cc3ccccc3)CC2)c1O [PAC-1]
IC50 (HT55): > 2560 nM
IC50 (TE-441-T): > 2560 nM
IC50 (MHH-CALL-2): > 2560 nM
IC50 (IST-SL2): > 2560 nM
IC50 (NALM-6): 703 nM
IC50 (LC-1F): > 2560 nM
IC50 (TALL-1): > 2560 nM
IC50 (SJRH30): > 2560 nM
IC50 (CHP-126): 918 nM
IC50 (DMS-153): > 2560 nM
IC50 (EB2): > 2560 nM
IC50 (SIMA): > 2560 nM
IC50 (SNU-423): > 2560 nM
IC50 (LC4-1): > 2560 nM
IC50 (SNU-16): > 2560 nM
IC50 (NCI-H2196): > 2560 nM
IC50 (NCI-H1882): > 2560 nM
IC50 (NCCIT): > 2560 nM
IC50 (SK-MM-2): > 2560 nM
IC50 (NB1): > 2560 nM
IC50 (MC-CAR): 1530 nM
IC50 (HSC-4): > 2560 nM
IC50 (LP-1): > 2560 nM
IC50 (NCI-H1417): > 2560 nM
IC50 (SCLC-21H): > 2560 nM
IC50 (RL): > 2560 nM
IC50 (NCI-H748): > 2560 nM
IC50 (CAL-148): > 2560 nM
IC50 (P31-FUJ): > 2560 nM
IC50 (BL-41): 1450 nM
IC50 (BL-70): 1970 nM
IC50 (NCI-H460): > 2560 nM
IC50 (WSU-NHL): > 2560 nM
IC50 (PF-382): 1060 nM
IC50 (RPMI-6666): 1040 nM
IC50 (EVSA-T): > 2560 nM
IC50 (NCI-H719): > 2560 nM
IC50 (UACC-812): > 2560 nM
IC50 (NCI-H2171): > 2560 nM
IC50 (U-698-M): > 2560 nM
IC50 (CMK): 2130 nM
IC50 (CESS): 1490 nM
IC50 (SIG-M5): > 2560 nM
IC50 (RPMI 8402): 1770 nM
IC50 (BC-3): > 2560 nM
IC50 (NCI-H522): > 2560 nM
IC50 (MONO-MAC-6): > 2560 nM
IC50 (NCI-H1522): > 2560 nM
IC50 (NCI-H64): > 2560 nM
